Experiments:
PC-3 = test: Xenograft of pre-treated PC-3 cells (Example 7, Study 2); type: in vivo, female nude mice; conditions: 20 mM in drinking water
Protocol: (§1) To further evaluate the activity of these fucose analogs, further studies were performed in vivo using tumor cells that had been pre-treated by culturing in the presence of a fucose analog, or using untreated tumor cells. Tumor cells were implanted into 10 mice per group as follows. For the LS174T, PC-3, and Caki-1 cell lines, 5×10^5 cells in 25% Matrigel were implanted subcutaneously into female nude mice. For HL-60 and Ramos cell lines, 5×10^6 cells were implanted subcutaneously into female SCID mice. For mice implanted with untreated tumor cells, mice were provided regular drinking water. For mice implanted with tumor cells pre-treated with 2-fluorofucose (SGD-2083), the mice were provided drinking water supplemented with 20 mM 2-fluorofucose (SGD-2083). For mice implanted with tumor cells pre-treated with alkylnyl fucose (SGD-1887), the mice were provided with regular drinking water.
(§2) After 3 weeks of receiving 2-fluorofucose-containing drinking water, mice were returned to regular drinking water, except for mice with Caki-1 tumors. The latter mice were returned to regular drinking water for one week. After the week of receiving regular water, mice were randomized to two groups of 5 each to receive drinking water supplemented with 20 mM 2-fluorofucose or regular drinking water. Mice were sacrificed when tumors reached about 1000 mm^3.

[1] = tested on: Caki-1 renal cell carcinoma; test: Xenograft of pre-treated Caki-1 cells (Example 7, Study 2); type: in vivo, female nude mice; conditions: 20 mM in drinking water, not in first treatment period, observed in second
Protocol: as §1, §2

In the case of C[C@H](O)[C@@H](O)[C@@H](O)[C@H](F)C=O [SGD-2083, 2-fluoro-2-deoxy fucose], the tumor growth (PC-3) is reported as “tumor growth inhibition in vivo was seen” and the tumor growth [1] is reported as “tumor growth inhibition in vivo was seen”.
